Laboratory results: US20070154538A1, “Removal of fat cells by PDT” (CeramOptec GmbH, priority 2005, published 2007)

Assay: solubility of the photosensitizer in triglycerides
Type: physicochemical
Conditions: the main component of adipose cells

Structure (SMILES): Oc1cccc(-c2c3nc(c(-c4cccc(O)c4)c4ccc([nH]4)c(-c4cccc(O)c4)c4nc(c(-c5cccc(O)c5)c5ccc2[nH]5)CC4)C=C3)c1 [mTHPC, temoporfin]
- solubility level in the triglycerides: low solubility level
